Measurements from PubChem BioAssay AID248 (DTP/NCI, 2004).
Where “and” joins values, the source holds several entries; their conditions need not be identical. Equal entries are not always repeated. Inconclusive results and toxic doses are left out. Cut-off read from the data, not from the text of the source: active = T/C of 150% or more; inactive = T/C below 125%.

Tested on: L1210 leukemia ip in BDF1 mice, survival T/C
Assay: NCI In Vivo Anticancer Drug Screen. Data for tumor model L1210 Leukemia (intraperitoneal) in B6D2F1 (BDF1) mice
Details: endpoint: mean survival time, higher = longer survival
Procedure, shortened: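 Value reflects the ratio of survival in compound-treated mice to survival in vehicle-treated controls, with both groups carrying the same transplanted tumor.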

[1] = dose: 100.0 mg/kg/injection, schedule: Q01DX001 (ip), vehicle: carboxymethylcellulose (CMC)
[2] = dose: 200.0 mg/kg/injection, schedule: Q01DX001 (ip), vehicle: carboxymethylcellulose (CMC)
[3] = dose: 400.0 mg/kg/injection, schedule: Q01DX001 (ip), vehicle: carboxymethylcellulose (CMC)
[4] = dose: 100.0 mg/kg/injection, schedule: Q04DX003 (ip), vehicle: saline
[5] = dose: 200.0 mg/kg/injection, schedule: Q04DX003 (ip), vehicle: saline
[6] = dose: 400.0 mg/kg/injection, schedule: Q04DX003 (ip), vehicle: saline
[7] = dose: 100.0 mg/kg/injection, schedule: Q01DX001 (ip), vehicle: saline
[8] = dose: 100.0 mg/kg/injection, schedule: Q01DX009 (ip), vehicle: saline
[9] = dose: 200.0 mg/kg/injection, schedule: Q01DX001 (ip), vehicle: saline
[10] = dose: 200.0 mg/kg/injection, schedule: Q01DX009 (ip), vehicle: saline
[11] = dose: 400.0 mg/kg/injection, schedule: Q01DX001 (ip), vehicle: saline
[12] = dose: 100.0 mg/kg/injection, schedule: Q04DX002 (ip), vehicle: saline
[13] = dose: 200.0 mg/kg/injection, schedule: Q04DX002 (ip), vehicle: saline
[14] = dose: 400.0 mg/kg/injection, schedule: Q04DX002 (ip), vehicle: saline
[15] = dose: 100.0 mg/kg/injection, schedule: Q04DX003 (ip), vehicle: Klucel (hydroxypropylcellulose) (HPC)
[16] = dose: 200.0 mg/kg/injection, schedule: Q04DX003 (ip), vehicle: Klucel (hydroxypropylcellulose) (HPC)
[17] = dose: 100.0 mg/kg/injection, schedule: Q04DX003 (ip), vehicle: saline with Tween-80
[18] = dose: 200.0 mg/kg/injection, schedule: Q04DX003 (ip), vehicle: saline with Tween-80
[19] = dose: 400.0 mg/kg/injection, schedule: Q04DX003 (ip), vehicle: saline with Tween-80
[20] = dose: 100.0 mg/kg/injection, schedule: Q01DX009 (ip), vehicle: saline with Tween-80
[21] = dose: 200.0 mg/kg/injection, schedule: Q01DX009 (ip), vehicle: saline with Tween-80
[22] = dose: 400.0 mg/kg/injection, schedule: Q04DX003 (ip), vehicle: Klucel (hydroxypropylcellulose) (HPC)
[23] = dose: 5.0 mg/kg/injection, schedule: Q01DX001 (ip), vehicle: saline
[24] = dose: 10.0 mg/kg/injection, schedule: Q01DX001 (ip), vehicle: saline
[25] = dose: 20.0 mg/kg/injection, schedule: Q01DX001 (ip), vehicle: saline
[26] = dose: 40.0 mg/kg/injection, schedule: Q01DX001 (ip), vehicle: saline

Measured: T/C

C/C(=N\Nc1cccc(N)c1)c1ccccc1
inactive: dose: 25.6 mg/kg/injection, schedule: Q04DX002 (ip), vehicle: saline with Tween-80 89 % of control | dose: 64.0 mg/kg/injection, schedule: Q04DX002 (ip), vehicle: saline with Tween-80 89 % of control

Cc1cc(=O)oc2cc(OS(C)(=O)=O)ccc12
inactive: [1] 113 % of control | [2] 107 % of control | [3] 98 % of control

CCCn1nnc2ccccc2c1=Nc1ccccc1
inactive: [4] 99 % of control | [5] 94 % of control | [6] 103 % of control

COc1ccc(Br)cc1/C=C\C=O
inactive: [1] 87 % of control | [2] 105 % of control | [3] 100 % of control

COC(CN(C)Cc1ccccc1)OC
inactive: dose: 75.0 mg/kg/injection, schedule: Q01DX001 (ip), vehicle: saline 107 % of control | dose: 150.0 mg/kg/injection, schedule: Q01DX001 (ip), vehicle: saline 104 % of control | dose: 300.0 mg/kg/injection, schedule: Q01DX001 (ip), vehicle: saline 102 % of control

COC(C#N)C(O)(c1ccccc1)c1ccccc1 (configuration not stated)
inactive: dose: 75.0 mg/kg/injection, schedule: Q01DX001 (ip), vehicle: other 94 % of control | dose: 150.0 mg/kg/injection, schedule: Q01DX001 (ip), vehicle: other 100 % of control

CCOC(=O)CCC(N)C(=O)OCC (configuration not stated)
inactive: [7] 95 % of control and 91 % of control | [8] 96 % of control | [9] 91 % of control | [10] 88 % of control | [11] 98 % of control and 86 % of control

N=C(N)SCCC(=O)O
inactive: [8] 100 % of control | [4] 90 % of control | [10] 110 % of control | [5] 96 % of control | dose: 400.0 mg/kg/injection, schedule: Q01DX009 (ip), vehicle: saline 115 % of control | [6] 95 % of control

CCCCOC(=O)C1(C)OC1c1ccccc1 (configuration not stated)
inactive: [12] 101 % of control | [13] 89 % of control | [14] 101 % of control

O=C(c1ccccc1)C(C(NC1CCCCC1)c1ccccc1)N1CCCCC1 (configuration not stated)
inactive: dose: 100.0 mg/kg/injection, schedule: Q01DX001 (ip), vehicle: Klucel (hydroxypropylcellulose) (HPC) 95 % of control | dose: 200.0 mg/kg/injection, schedule: Q01DX001 (ip), vehicle: Klucel (hydroxypropylcellulose) (HPC) 92 % of control | dose: 400.0 mg/kg/injection, schedule: Q01DX001 (ip), vehicle: Klucel (hydroxypropylcellulose) (HPC) 92 % of control

Oc1c(Cl)c(Cl)cc(Cl)c1Cc1c(Cl)cc(Cl)c(Cl)c1[O][Pb]([c]1ccccc1)([c]1ccccc1)[c]1ccccc1
inactive: dose: 6.25 mg/kg/injection, schedule: Q01DX009 (ip), vehicle: saline 101 % of control | dose: 12.5 mg/kg/injection, schedule: Q01DX009 (ip), vehicle: saline 95 % of control | dose: 25.0 mg/kg/injection, schedule: Q04DX002 (ip), vehicle: saline 86 % of control | [12] 97 % of control

CCC(C)C(C)C(C)=O (configuration not stated)
inactive: dose: 50.0 mg/kg/injection, schedule: Q01DX001 (ip), vehicle: saline 110 % of control | [7] 101 % of control | [9] 93 % of control

CCC1CCC(Cc2ccncc2)CC1 (configuration not stated)
inactive: [15] 98 % of control | [16] 92 % of control

C/C=C1\CN2CCC34CC5C6CC7c8c(c9ccccc9n8C)CC(C6COC5(C)OC35C2CC1C(C(=O)OC)N5c1ccccc14)N7C (configuration not stated)
inactive: [17] 87 % of control

O=C(O)c1cccc2cccc(C(=O)c3cccs3)c12
inactive: [17] 91 % of control | [18] 98 % of control | [19] 91 % of control

Nc1ccc(C(=O)O)c(C(=O)O)c1
inactive: [20] 101 % of control | [15] 100 % of control | [21] 91 % of control | [16] 98 % of control | [22] 102 % of control

CNC(=S)Nc1ccc(C)c(Cl)c1
inactive: [12] 104 % of control | [13] 108 % of control | [14] 106 % of control

CC1(C)N=C(N)N=C(N)N1c1cccc(OCCCOc2ccc(N)cc2)c1
inactive: [23] 97 % of control | [24] 100 % of control | [25] 101 % of control | [26] 100 % of control

Cc1ccc(N=C2CCCCC2Nc2ccc(C)cc2)cc1.[Cl][Zn][Cl] (configuration not stated)
inactive: [7] 98 % of control | [9] 101 % of control | [11] 104 % of control

CN(C)CCNC(=O)CN
inactive: [7] 102 % of control | [9] 107 % of control | [11] 107 % of control

Cc1ccc(Cl)c([N+](=O)[O-])c1N
inactive: [20] 92 % of control | [17] 106 % of control | [21] 95 % of control | [18] 104 % of control | dose: 400.0 mg/kg/injection, schedule: Q01DX009 (ip), vehicle: saline with Tween-80 108 % of control | [19] 104 % of control

CCOC(=O)/C(C#N)=C/c1cc2c3c(c1)CCCN3CCC2
inactive: dose: 50.0 mg/kg/injection, schedule: Q04DX003 (ip), vehicle: saline with Tween-80 111 % of control | [17] 93 % of control | [18] 93 % of control | [19] 92 % of control

NC(=O)C(C(N)=O)C1CCCCc2ccccc21 (configuration not stated)
inactive: [1] 90 % of control | [2] 106 % of control | [3] 88 % of control

C=CC(C)(C)c1ccccc1O
inactive: [17] 95 % of control | [18] 104 % of control

CCCCCCCCCCCCCCCCOc1ccc(-c2cc(=O)n(C)n2C)cc1
inactive: [15] 95 % of control | [16] 101 % of control | [22] 95 % of control

CC1(C(=O)O)NC(C(=O)O)CS1 (configuration not stated)
inactive: [23] 96 % of control | [24] 108 % of control | [25] 104 % of control | [26] 102 % of control | dose: 80.0 mg/kg/injection, schedule: Q01DX001 (ip), vehicle: saline 98 % of control
